Source: US7691833B2, “Compositions and methods for preventing sporadic neoplasia in colon” (Trustees of Dartmouth College, priority 2002, dated 2010)

Assays:
large bowel adenomas = assay: Randomized, double-blind, placebo-controlled study of aspirin on occurrence of large bowel adenomas; format: in vivo, humans; conditions: for Relative Crude Risk (95% CI) / Adjusted Relative Risk (95% CI): versus placebo
Source text: Patients were recruited at nine centers in North America.
By protocol, subjects were to have a complete surveillance colonoscopy 34-40 months after the qualifying examination. At each colonoscopy, the endoscopist recorded the estimated size and location of all polyps and mucosal lesions suspicious for neoplasia as per usual clinical practice. Each lesion was removed and examined histologically at the clinical center and by the study pathologist. Polyps were classified as neoplastic (adenomatous) or non-neoplastic (e.g., hyperplastic) by the study pathologist.
The primary study outcome was the proportion of subjects with one or more colorectal adenomas detected during the period from one year after randomization through the anticipated surveillance follow-up. If a surveillance colonoscopy was not performed during the protocol time window, the last examination at least one year after randomization was taken as the follow-up exam. Pre-specified secondary outcomes were the numbers of large-bowel adenomas and “advanced lesions”: tubulovillous adenomas (25 to 75 percent villous features), villous adenomas (>75 percent villous), large adenomas ([…]), severe dysplasia, or invasive cancer. Separate analyses were also conducted for lesions in the left colorectum (descending colon, sigmoid colon, and rectum) and right colorectum (the remainder of the bowel).

[1] = Serious medical events in the randomized, placebo-controlled aspirin study; conditions: for Serious Bleeding, Gastrointestinal, no of subjects / Serious Bleeding, Genitourinary, no of subjects: bleeding leading to hospitalization or surgical intervention
Description: A multi-center, randomized, double-blind, placebo-controlled study was performed that examined the effects of aspirin alone as well as folate treatment combined with aspirin on the occurrence of large bowel adenomas. The study has a 3-by-2 factorial design, investigating aspirin (placebo, 81 mg/day, or 325 mg/day) and folic acid (placebo or 1 mg/day). Patients were recruited at nine centers in North America. Eligible subjects had at least one of the following: (1) one or more histologically confirmed large-bowel adenomas removed within 3 months prior to recruitment, (2) one or more histologically confirmed large-bowel adenomas removed within 16 months before recruitment and a lifetime history of 2 or more confirmed large-bowel adenomas, or (3) a histologically confirmed large-bowel adenoma at least 1 cm in diameter removed within 16 months before recruitment. […] Eligible subjects were between 21 and 80 years old, in good health, and with anticipated colonoscopic follow-up three years after the qualifying examination. Exclusion criteria included a history of a familial colorectal cancer syndrome, invasive large-bowel cancer, malabsorption syndromes, any condition potentially worsened by supplemental aspirin or folic acid, or any condition commonly treated with aspirin, non-steroidal anti-inflammatory drugs (NSAIDs), or folate (e.g., recurrent arthritis, atherosclerotic vascular disease, folic acid deficiency).
Study coordinators at each center maintained contact with the subjects on a regular basis; interval questionnaires regarding possible side effects and medical events were completed every four months by each subject.
Subjects were regularly counseled regarding avoidance of aspirin and other NSATDs. Lists of products containing aspirin, ibuprofen, or naproxen were provided, and acetaminophen was distributed for treatment of minor febrile illnesses and pain. Every four months, subjects received questionnaires regarding adherence to study treatment; use of medications, over-the-counter drugs and nutritional supplements; and occurrence of symptoms, illnesses, and hospitalizations.
The statistical analysis compared the aspirin treatment groups irrespective of folic acid treatment. Subjects who underwent a follow-up endoscopy at least one year following randomization were included in the analyses. The predefined primary statistical analysis was a 2 degree-of-freedom chi-squared test for a contingency table comparing treatment groups regarding risk of one or more new adenomas. Crude risk ratios and 95 percent confidence intervals were used to compare treatment groups to placebo. Adjusted risk ratios were obtained from log-linear models with age, gender, clinical center, number of lifetime adenomas, and duration of follow-up as covariates. […] Possible modification of treatment effects by baseline characteristics was assessed using interaction terms in the log-linear model. Counts of other clinical endpoints were compared using Fisher's exact test. To compare the effect of aspirin on different types of polyps, a logistic regression model was used with generalized estimating equations (Liang and Zeger Biometrika 1986:13-22) to account for the clustering of multiple endpoints within patients. […] Two-sided P-values <0.05 were considered statistically significant.

[2] = Advanced Lesion, both aspirin groups combined
[3] = Any Adenoma, both aspirin groups combined
[4] = Tubular Adenoma, both aspirin groups combined

In the case of `CC(=O)Oc1ccccc1C(=O)O` [Aspirin, acetylsalicylic acid], the “reduction in risk for advanced lesions” value (large bowel adenomas; 81 mg aspirin) was over 40%, the “reduction in risk of one or more adenomas” value (large bowel adenomas; 81 mg aspirin) was 19% and the “adjusted risk ratio for the detection of at least one advanced adenoma” value (large bowel adenomas; 81 mg aspirin, among women) was 0.18. For the same compound, the “adjusted risk ratio for the detection of at least one advanced adenoma” value (large bowel adenomas; 81 mg aspirin, among younger subjects (younger than median age 57 years at randomization)) was 0.37, the “reduction in risk of one or more adenomas” value (large bowel adenomas; 325 mg aspirin, non-significant) was 4% and the “N with adenoma/N followed” value (large bowel adenomas; Advanced Lesion, 81 mg/day) was 28/366. The “N with adenoma/N followed (percent)” value (large bowel adenomas; Advanced Lesion, 81 mg/day) was “(7.7%)”, the “Relative Crude Risk (95% CI)” value (large bowel adenomas; Advanced Lesion, 81 mg/day) was 0.59 and the “Adjusted Relative Risk (95% CI)” value (large bowel adenomas; Advanced Lesion, 81 mg/day, adjusted) was 0.58. For the same compound, the “N with adenoma/N followed” value (large bowel adenomas; Advanced Lesion, 325 mg/day) was 38/355, the “N with adenoma/N followed (percent)” value (large bowel adenomas; Advanced Lesion, 325 mg/day) was “(10.7%)” and the “Relative Crude Risk (95% CI)” value (large bowel adenomas; Advanced Lesion, 325 mg/day) was 0.83. For the same compound, the “Adjusted Relative Risk (95% CI)” value (large bowel adenomas; Advanced Lesion, 325 mg/day, adjusted) was 0.83, the “N with adenoma/N followed” value (large bowel adenomas; [2]) was 66/721 and the “N with adenoma/N followed (percent)” value (large bowel adenomas; [2]) was “(9.2%)”. For the same compound, the “Relative Crude Risk (95% CI)” value (large bowel adenomas; [2]) was 0.71, the “Adjusted Relative Risk (95% CI)” value (large bowel adenomas; Advanced Lesion, both aspirin groups combined, adjusted) was 0.70 and the “N with adenoma/N followed” value (large bowel adenomas; Any Adenoma, 81 mg/day) was 140/366. For the same compound, the “N with adenoma/N followed (percent)” value (large bowel adenomas; Any Adenoma, 81 mg/day) was “(38.3%)”, the “N with adenoma/N followed (percent)” value (large bowel adenomas; Any Adenoma, 81 mg/day, listed as aspirin) was 38.3% and the “Relative Crude Risk (95% CI)” value (large bowel adenomas; Any Adenoma, 81 mg/day) was 0.81. For the same compound, the “Adjusted Relative Risk (95% CI)” value (large bowel adenomas; Any Adenoma, 81 mg/day, adjusted) was 0.83, the “N with adenoma/N followed” value (large bowel adenomas; Any Adenoma, 325 mg/day) was 160/355 and the “N with adenoma/N followed (percent)” value (large bowel adenomas; Any Adenoma, 325 mg/day) was “(45.1%)”. For the same compound, the “N with adenoma/N followed (percent)” value (large bowel adenomas; Any Adenoma, 325 mg/day, listed as aspirin) was 45.1%, the “Relative Crude Risk (95% CI)” value (large bowel adenomas; Any Adenoma, 325 mg/day) was 0.96 and the “Adjusted Relative Risk (95% CI)” value (large bowel adenomas; Any Adenoma, 325 mg/day, adjusted) was 0.95. For the same compound, the “N with adenoma/N followed (percent)” value (large bowel adenomas; [3]) was “(41.6%)”, the “N with adenoma/N followed” value (large bowel adenomas; Any Adenoma, both aspirin groups combined (81 and 325 mg/day)) was 300/721 and the “Relative Crude Risk (95% CI)” value (large bowel adenomas; [3]) was 0.88. The “Adjusted Relative Risk (95% CI)” value (large bowel adenomas; Any Adenoma, both aspirin groups combined, adjusted for age, sex, clinical center, length of follow-up, baseline number of lifetime adenoma) was 0.89, the “N with adenoma/N followed” value (large bowel adenomas; Tubular Adenoma, 81 mg/day) was 121/366 and the “N with adenoma/N followed (percent)” value (large bowel adenomas; Tubular Adenoma, 81 mg/day) was “(33.1%)”. The “Relative Crude Risk (95% CI)” value (large bowel adenomas; Tubular Adenoma, 81 mg/day) was 0.84, the “Adjusted Relative Risk (95% CI)” value (large bowel adenomas; Tubular Adenoma, 81 mg/day, adjusted) was 0.87 and the “N with adenoma/N followed” value (large bowel adenomas; Tubular Adenoma, 325 mg/day) was 141/355. For the same compound, the “N with adenoma/N followed (percent)” value (large bowel adenomas; Tubular Adenoma, 325 mg/day) was “(39.7%)”, the “Relative Crude Risk (95% CI)” value (large bowel adenomas; Tubular Adenoma, 325 mg/day) was 1.01 and the “Adjusted Relative Risk (95% CI)” value (large bowel adenomas; Tubular Adenoma, 325 mg/day, adjusted) was 1.00. The “N with adenoma/N followed” value (large bowel adenomas; [4]) was 262/721, the “N with adenoma/N followed (percent)” value (large bowel adenomas; [4]) was “(36.3%)” and the “Relative Crude Risk (95% CI)” value (large bowel adenomas; [4]) was 0.92. For the same compound, the “Adjusted Relative Risk (95% CI)” value (large bowel adenomas; Tubular Adenoma, both aspirin groups combined, adjusted) was 0.93, the “reduction in risk of one or more adenomas” value (large bowel adenomas; both aspirin groups combined, non-significant) was 12% and the incidence of adenomas (large bowel adenomas; patients randomized to the aspirin groups) was “significantly lower”. For the same compound, the “Died, percent” value ([1]; 81 mg Aspirin, N = 377 (Table 2)) was 0.8%, the “Coronary Revascularization, no of subjects” value ([1]; 81 mg aspirin (N = 377)) was 3 and the “Deaths, no of subjects” value ([1]; 81 mg aspirin (N = 377)) was 3. For the same compound, the “Hospitalization, no of subjects” value ([1]; 81 mg aspirin (N = 377)) was 61, the “Myocardial Infarction, no of subjects” value ([1]; 81 mg aspirin (N = 377)) was 2 and the “Non-Colorectal Cancer, no of subjects” value ([1]; 81 mg aspirin (N = 377)) was 14. The “Stroke, no of subjects” value ([1]; 81 mg aspirin (N = 377)) was 2, the “Serious Bleeding, Gastrointestinal, no of subjects” value ([1]; 81 mg aspirin (N = 377)) was 2 and the “Serious Bleeding, Genitourinary, no of subjects” value ([1]; 81 mg aspirin (N = 377)) was 6. The “stroke judged to be hemorrhagic” value ([1]; 81 mg aspirin group, after review of the medical records) was “One”, the “Died, percent” value ([1]; 325 mg Aspirin, N = 372 (Table 2)) was 1.1% and the “Coronary Revascularization, no of subjects” value ([1]; 325 mg aspirin (N = 372)) was 5. The “Deaths, no of subjects” value ([1]; 325 mg aspirin (N = 372)) was 4, the “Hospitalization, no of subjects” value ([1]; 325 mg aspirin (N = 372)) was 57 and the “Myocardial Infarction, no of subjects” value ([1]; 325 mg aspirin (N = 372)) was 4. The “Non-Colorectal Cancer, no of subjects” value ([1]; 325 mg aspirin (N = 372)) was 9, the “Stroke, no of subjects” value ([1]; 325 mg aspirin (N = 372)) was 5 and the “Serious Bleeding, Gastrointestinal, no of subjects” value ([1]; 325 mg aspirin (N = 372)) was 4. For the same compound, the “Serious Bleeding, Genitourinary, no of subjects” value ([1]; 325 mg aspirin (N = 372)) was 2, the “Hospitalization, cancer and myocardial infarction frequency” value ([1]; aspirin groups versus placebo, differences compatible with chance) was “somewhat more frequently in the aspirin groups than in placebo” and the “patients diagnosed with a stroke (all non-fatal)” value ([1]; both aspirin groups together, none in placebo) was “Seven”.
